Results as given in ChEMBL document CHEMBL1201862, “PubChem BioAssay data set” (2004).
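Cultured in 96-well plates, cells were exposed to test compound for 48 hours across five concentrations. Here, GI50 denotes the concentration required for 50% inhibition of growth.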 Calls of active or inactive are those of the source. No stated cut-off is given here; in the data, active = GI50 up to about 1.1 µM and inactive = higher.

Legend:
Assay in all cases: NCI tumour cell line growth inhibition, 48 h
[1] = test system: HOP-62
[2] = test system: KM12
[3] = test system: SN12C
[4] = test system: UACC-62
[5] = test system: OVCAR-3
[6] = test system: Malme-3M
[7] = test system: SNB-19
[8] = test system: HCT-15
[9] = test system: NCI-H522
[10] = test system: ACHN
[11] = test system: NCI-H23
[12] = test system: DU-145
[13] = test system: SW-620
[14] = test system: LOX IMVI
[15] = test system: EKVX
[16] = test system: SK-MEL-5
[17] = test system: SF-539
[18] = test system: M14
[19] = test system: CCRF-CEM
[20] = test system: K562

SMILES | GI50 [1] | GI50 [2] | GI50 [3] | GI50 [4] | GI50 [5] | GI50 [6] | GI50 [7] | GI50 [8] | GI50 [9] | GI50 [10] | GI50 [11] | GI50 [12] | GI50 [13] | GI50 [14] | GI50 [15] | GI50 [16] | GI50 [17] | GI50 [18] | GI50 [19] | GI50 [20]
O=C(CN1CCN(C(=O)OCc2ccccc2)CCN(CC(=O)N2CCCCC2)CCN(C(=O)OCc2ccccc2)CC1)N1CCCCC1 | 19.5 µM (inactive) | 17.7 µM (inactive) | 11.6 µM (inactive) | 18.1 µM (inactive) | 10.7 µM (inactive) | 8.38 µM (inactive) | 19.7 µM (inactive) | 17.9 µM | 5.52 µM (inactive) | 18.1 µM (inactive) | 20.7 µM (inactive) | 21.4 µM (inactive) | 19.6 µM (inactive) | 14.5 µM (inactive) | 24.9 µM (inactive) | 6.87 µM (inactive) | 14.6 µM (inactive) | 10.1 µM (inactive) | 6.44 µM (inactive) | 5.4 µM (inactive)
C/C=C/[C@@H]1O[C@H](CC#C[Si](C)(C)C)[C@@]2(C=O)C(C)=CC[C@H](C(C)C)[C@@H]12 | 25.4 µM (inactive) | 17.7 µM (inactive) | 17.7 µM (inactive) | 15.8 µM (inactive) | 18.6 µM (inactive) | 19 µM (inactive) | 23.8 µM (inactive) | 21.1 µM | 2.09 µM (inactive) | 19.2 µM (inactive) | 22.2 µM (inactive) | 21.3 µM (inactive) | 23.2 µM (inactive) | 4.5 µM (inactive) | 18.8 µM (inactive) | 17.6 µM (inactive) | 21.6 µM (inactive) | 18.5 µM (inactive) | 2.41 µM (inactive) | 14.7 µM (inactive)
CCN1CN(c2ccccc2)C2(CCN(CCCSc3ccc(F)cc3)CC2)C1=O | 4.31 µM (inactive) | 14.3 µM (inactive) | 8.47 µM (inactive) | 15.1 µM (inactive) | 13.9 µM (inactive) | 19.9 µM (inactive) | 10.1 µM (inactive) | 11 µM | 15 µM (inactive) | 4.7 µM (inactive) | 10.4 µM (inactive) | 4.65 µM (inactive) | 7.29 µM (inactive) | 14.3 µM (inactive) | 4.89 µM (inactive) | 2.82 µM (inactive) | 9.4 µM (inactive) | 6.75 µM (inactive) | 4.24 µM (inactive) | 12.9 µM (inactive)
COC(=O)CC1C2CC3C(C2=O)C13 (stereo not drawn) | > 100 µM (inactive) | > 100 µM (inactive) | > 100 µM (inactive) | > 100 µM (inactive) | > 100 µM (inactive) | > 100 µM (inactive) | > 100 µM (inactive) | > 100 µM | > 100 µM (inactive) | > 100 µM (inactive) | > 100 µM (inactive) | > 100 µM (inactive) | > 100 µM (inactive) | > 100 µM (inactive) | > 100 µM (inactive) | > 100 µM (inactive) | > 100 µM (inactive) | > 100 µM (inactive) | > 100 µM (inactive) | > 100 µM (inactive)
O=C1CSC(c2ccccc2O)N1c1ccc(-n2c(-c3ccccc3)nc3ccccc3c2=O)cc1 (stereo not drawn) | 20.6 µM (inactive) | 20.9 µM (inactive) | 30.3 µM (inactive) | 21.5 µM (inactive) | 14.6 µM (inactive) | 22.2 µM (inactive) | 27.3 µM (inactive) | 6.84 µM | 19.9 µM (inactive) | 19.7 µM (inactive) | 31.6 µM (inactive) | 29.2 µM (inactive) | 29.7 µM (inactive) | 13.1 µM (inactive) | – | 16.1 µM (inactive) | 16.6 µM (inactive) | 33.7 µM (inactive) | 14.7 µM (inactive) | 15.2 µM (inactive)
Cn1cnc(C(N)=[Se])c1N | 2.46 µM (inactive) | 2.33 µM (inactive) | 2.29 µM (inactive) | 2 µM (inactive) | 2.03 µM (inactive) | 2.69 µM (inactive) | 1.29 µM (inactive) | 3.63 µM | 2.19 µM (inactive) | 2.6 µM (inactive) | 3 µM (inactive) | 4.1 µM (inactive) | 4.19 µM (inactive) | 3.26 µM (inactive) | 2.05 µM (inactive) | 3.21 µM (inactive) | 2.02 µM (inactive) | 4.44 µM (inactive) | 2.24 µM (inactive) | –
